In PubChem BioAssay (NCI):
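How tested: cells in 96-well plates exposed to compound for 48 hours at five concentrations. Here, GI50 denotes the concentration required for 50% inhibition of growth. Definition used: TGI = concentration required for complete inhibition of growth.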

Legend:
Test in all cases: NCI tumour cell line growth inhibition, 48 h
NCI-H226 lung = tested on: NCI-H226 lung
RPMI-8226 leukemia = tested on: RPMI-8226 leukemia
RXF 393 renal = tested on: RXF 393 renal
LOX IMVI melanoma = tested on: LOX IMVI melanoma
HL-60(TB) leukemia = tested on: HL-60(TB) leukemia
UACC-257 melanoma = tested on: UACC-257 melanoma
786-0 renal = tested on: 786-0 renal
MCF7 breast = tested on: MCF7 breast
PC-3 prostate = tested on: PC-3 prostate
SK-MEL-2 melanoma = tested on: SK-MEL-2 melanoma
SW-620 colon = tested on: SW-620 colon
MDA-MB-435 = tested on: MDA-MB-435
SR leukemia = tested on: SR leukemia
SK-MEL-5 melanoma = tested on: SK-MEL-5 melanoma
NCI/ADR-RES ovarian = tested on: NCI/ADR-RES ovarian
SN12C renal = tested on: SN12C renal
A498 renal = tested on: A498 renal
A549 NSCLC = tested on: A549 NSCLC
SK-MEL-28 melanoma = tested on: SK-MEL-28 melanoma
SF-539 CNS = tested on: SF-539 CNS
MOLT-4 leukemia = tested on: MOLT-4 leukemia
HS 578T breast = tested on: HS 578T breast
UO-31 renal = tested on: UO-31 renal
OVCAR-4 ovarian = tested on: OVCAR-4 ovarian
NCI-H23 lung = tested on: NCI-H23 lung
MDA-MB-231 breast = tested on: MDA-MB-231 breast
OVCAR-8 ovarian = tested on: OVCAR-8 ovarian

For `O=C(Nc1ccccc1F)c1ccc(NC2=C(Cl)C(=O)N(Cc3ccccc3)C2=O)cc1`, the GI50 (NCI-H226 lung) was 11.2 µM, the TGI (NCI-H226 lung) was 25.2 µM and the GI50 (RPMI-8226 leukemia) was 1830 nM. The TGI (RPMI-8226 leukemia) was 3.92 µM, the GI50 (RXF 393 renal) was 5.09 µM and the TGI (RXF 393 renal) was 16.6 µM. It also gave a GI50 (LOX IMVI melanoma) of 2350 nM, a TGI (LOX IMVI melanoma) of 5.9 µM and a GI50 (HL-60(TB) leukemia) of 1720 nM. The TGI (HL-60(TB) leukemia) was 3.36 µM, the GI50 (UACC-257 melanoma) was 12.5 µM and the TGI (UACC-257 melanoma) was 29.8 µM. For the same compound, the GI50 (786-0 renal) was 14 µM, the TGI (786-0 renal) was 27 µM and the GI50 (MCF7 breast) was 2020 nM. For the same compound, the TGI (MCF7 breast) was 5.06 µM, the GI50 (PC-3 prostate) was 3.39 µM and the TGI (PC-3 prostate) was 12.8 µM. For the same compound, the GI50 (SK-MEL-2 melanoma) was 6.84 µM, the TGI (SK-MEL-2 melanoma) was 18.4 µM and the GI50 (SW-620 colon) was 3.29 µM. It also gave a TGI (SW-620 colon) of 9.93 µM, a GI50 (MDA-MB-435) of 3.07 µM and a TGI (MDA-MB-435) of 11.5 µM. For the same compound, the GI50 (SR leukemia) was 660 nM, the TGI (SR leukemia) was 2460 nM and the GI50 (SK-MEL-5 melanoma) was 4.41 µM. It also gave a TGI (SK-MEL-5 melanoma) of 16.2 µM, a GI50 (NCI/ADR-RES ovarian) of 11.5 µM and a TGI (NCI/ADR-RES ovarian) of 23.6 µM. It also gave a GI50 (SN12C renal) of 1980 nM, a TGI (SN12C renal) of 7.93 µM and a GI50 (A498 renal) of 16.6 µM. For the same compound, the TGI (A498 renal) was 30.2 µM, the GI50 (A549 NSCLC) was 13.5 µM and the TGI (A549 NSCLC) was 26.3 µM. It also gave a GI50 (SK-MEL-28 melanoma) of 3.88 µM, a TGI (SK-MEL-28 melanoma) of 13.5 µM and a GI50 (SF-539 CNS) of 6.18 µM. It also gave a TGI (SF-539 CNS) of 18 µM, a GI50 (MOLT-4 leukemia) of 2450 nM and a TGI (MOLT-4 leukemia) of 6.79 µM. For the same compound, the GI50 (HS 578T breast) was 2950 nM, the TGI (HS 578T breast) was 9.4 µM and the GI50 (UO-31 renal) was 1860 nM. For the same compound, the TGI (UO-31 renal) was 3.6 µM, the GI50 (OVCAR-4 ovarian) was 11.1 µM and the TGI (OVCAR-4 ovarian) was 23.1 µM. The GI50 (NCI-H23 lung) was 13 µM, the TGI (NCI-H23 lung) was 25.7 µM and the GI50 (MDA-MB-231 breast) was 2800 nM. It also gave a TGI (MDA-MB-231 breast) of 13.8 µM, a GI50 (OVCAR-8 ovarian) of 2840 nM and a TGI (OVCAR-8 ovarian) of 7.86 µM.
